The values below come from US10723699B2 (Hyundai Pharm Co., Ltd., priority 2015, dated 2020).

Entries after “also recorded” stand apart in the source; their conditions may differ. Like-named read-outs stand apart in the source and are kept apart here.

The target in data set [1] is T1, CYP1A2 (Homo sapiens, UniProt P05177).
T1 construct: purchased BD GENTEST 459100
T1 sequence (P05177 1-516): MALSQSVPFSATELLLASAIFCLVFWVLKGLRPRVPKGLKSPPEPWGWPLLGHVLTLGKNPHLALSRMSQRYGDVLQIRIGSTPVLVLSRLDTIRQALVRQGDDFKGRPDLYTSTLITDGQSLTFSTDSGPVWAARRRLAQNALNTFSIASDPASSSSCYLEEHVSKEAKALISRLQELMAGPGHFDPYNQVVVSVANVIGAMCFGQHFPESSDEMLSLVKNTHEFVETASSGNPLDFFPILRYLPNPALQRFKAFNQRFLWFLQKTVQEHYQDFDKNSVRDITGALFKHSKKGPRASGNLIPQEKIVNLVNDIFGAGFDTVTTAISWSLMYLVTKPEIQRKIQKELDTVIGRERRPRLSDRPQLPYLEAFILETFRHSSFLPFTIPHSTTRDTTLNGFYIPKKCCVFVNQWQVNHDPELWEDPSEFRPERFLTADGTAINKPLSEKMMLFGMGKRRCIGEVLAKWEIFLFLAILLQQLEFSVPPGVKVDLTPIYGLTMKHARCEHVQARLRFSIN
Description: CYP inhibition assay (BD GENTEST kit). To be noted: for inhibition at 15 min, 10 µM: human, CYP1A2 enzyme/substrate mixture of BD GENTEST kit, pH 7.4, 10 μM, read-out: CYP inhibition (% at 10 μM) 1A2. The data set is classed as in vitro ADME. The source says:
(§1) CYP enzymes play a major role in the metabolism of drugs. Depending on the inhibition activity of the CYP enzymes, the dose of the drugs and toxicity due to the co-administration of other drugs can be predicted. Therefore, we have measured the inhibitory activity for CYP3A4, CYP2C9, CYP1A2, CYP2D6 and CYP2C19 enzymes present in the body using the compounds of the present invention. Invitrogen P2862 kit was used for CYP2D6 inhibition assay, and BD GENTEST (459100, 459300, 459400, 459500) kits were used for CYP1A2, CYP2C9, CYP2C19 and CYP3A4 inhibition assay. In case of Invitrogen kit, the test materials were diluted in distilled water into 2.5× of the final test concentration.
(§2) In case of BD GENTEST kit, the test materials were diluted in acetonitrile into 50× of the final test concentration. NADPH-cofactor mixture containing cofactor, G6PDH and control protein was prepared in distilled water as per manufacturer's instruction. 4 μl of 50× test materials and 96 μl of NADPH-cofactor mixture were mixed in U-bottom 96-well plate, and the resulting mixture were pre-incubated at 37° C. for 10 minutes. Predetermined concentrations of enzyme/substrate mixture were prepared in distilled water using buffer (0.5M potassium phosphate, pH 7.4) and each of CYP450 enzyme/substrate mixture provided in the kit for the types of CYP450. To the pre-incubated plate, 100 μl of enzyme/substrate mixture was added, and then incubated at 37° C. for 15 minutes (CYP1A2), 30 minutes (CYP3A4 and CYP2C19) or 1.5 hours (CYP2C9). After completion of the reaction, the reactants were transferred to the white plates, and fluorescent values were measured using a micro-plate reader (Excitation and absorption wavelengths of CYP1A2 and CYP2C19 were 410 nm and 460 nm, respectively; and excitation and absorption wavelengths of CYP2C9 and CYP3A4 were 409 nm and 530 nm, respectively).
(§3) The measured values were converted into the inhibition percent of the test materials as compared to the value of the untreated control, and the results were summarized in Table 5.

Data set [2] concerns the target T2, CYP2C19 (Homo sapiens, UniProt P33261).
T2 construct: purchased BD GENTEST 459400
Description: CYP inhibition assay (BD GENTEST kit). The data set is classed as in vitro ADME. As to conditions: human, CYP2C19 enzyme/substrate mixture of BD GENTEST kit, pH 7.4, 10 μM; read-out: CYP inhibition (% at 10 μM) 2C19.
Source text: as §1, §2, §3

The target in data set [3] is T3, CYP2C9 (Homo sapiens, UniProt P11712).
T3 construct: purchased BD GENTEST 459300
T3 sequence (P11712 whole entry): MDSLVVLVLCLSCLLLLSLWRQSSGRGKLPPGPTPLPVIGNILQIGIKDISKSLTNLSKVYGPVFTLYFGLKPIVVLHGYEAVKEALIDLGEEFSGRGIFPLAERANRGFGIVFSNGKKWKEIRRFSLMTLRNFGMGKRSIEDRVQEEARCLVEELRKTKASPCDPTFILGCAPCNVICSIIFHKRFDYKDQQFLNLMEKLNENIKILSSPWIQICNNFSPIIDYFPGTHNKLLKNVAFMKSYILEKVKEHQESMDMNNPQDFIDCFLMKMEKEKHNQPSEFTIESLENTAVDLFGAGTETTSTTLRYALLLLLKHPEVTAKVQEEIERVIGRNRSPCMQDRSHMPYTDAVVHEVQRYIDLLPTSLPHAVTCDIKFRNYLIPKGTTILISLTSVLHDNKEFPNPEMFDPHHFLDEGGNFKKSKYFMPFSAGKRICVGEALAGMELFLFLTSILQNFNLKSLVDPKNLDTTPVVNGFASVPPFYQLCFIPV
As to the kind of experiment: CYP inhibition assay (BD GENTEST kit). To be noted: for inhibition at 1.5 h, 10 µM: human, CYP2C9 enzyme/substrate mixture of BD GENTEST kit, pH 7.4, 10 μM, read-out: CYP inhibition (% at 10 μM) 2C9. The class given is in vitro ADME.
Source text: as §1, §2, §3

For data set [4], the target named is T4, CYP3A4 (Homo sapiens, UniProt P08684).
T4 construct: purchased BD GENTEST 459500
T4 sequence (P08684 whole entry): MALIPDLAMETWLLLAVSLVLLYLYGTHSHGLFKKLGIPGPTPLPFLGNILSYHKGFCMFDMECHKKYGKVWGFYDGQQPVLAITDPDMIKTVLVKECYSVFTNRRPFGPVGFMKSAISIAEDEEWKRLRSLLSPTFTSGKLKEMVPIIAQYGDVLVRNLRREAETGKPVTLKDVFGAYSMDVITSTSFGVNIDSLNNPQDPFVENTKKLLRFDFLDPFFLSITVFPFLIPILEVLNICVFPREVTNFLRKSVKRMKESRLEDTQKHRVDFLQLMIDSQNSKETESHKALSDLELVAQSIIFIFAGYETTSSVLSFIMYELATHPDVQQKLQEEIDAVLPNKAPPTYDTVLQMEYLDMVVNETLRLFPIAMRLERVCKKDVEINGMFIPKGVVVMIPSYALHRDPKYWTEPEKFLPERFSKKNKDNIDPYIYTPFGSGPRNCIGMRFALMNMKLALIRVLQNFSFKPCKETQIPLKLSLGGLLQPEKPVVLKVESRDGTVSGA
Description: CYP inhibition assay (BD GENTEST kit). The class given is in vitro ADME. As to conditions: human, CYP3A4 enzyme/substrate mixture of BD GENTEST kit, pH 7.4, 10 μM; read-out: CYP inhibition (% at 10 μM) 3A4.
Source text: as §1, §2, §3

Data set [5] deals with T5, CYP2D6 (Homo sapiens, UniProt P10635).
T5 construct: purchased Invitrogen P2862
T5 sequence (P10635 whole entry): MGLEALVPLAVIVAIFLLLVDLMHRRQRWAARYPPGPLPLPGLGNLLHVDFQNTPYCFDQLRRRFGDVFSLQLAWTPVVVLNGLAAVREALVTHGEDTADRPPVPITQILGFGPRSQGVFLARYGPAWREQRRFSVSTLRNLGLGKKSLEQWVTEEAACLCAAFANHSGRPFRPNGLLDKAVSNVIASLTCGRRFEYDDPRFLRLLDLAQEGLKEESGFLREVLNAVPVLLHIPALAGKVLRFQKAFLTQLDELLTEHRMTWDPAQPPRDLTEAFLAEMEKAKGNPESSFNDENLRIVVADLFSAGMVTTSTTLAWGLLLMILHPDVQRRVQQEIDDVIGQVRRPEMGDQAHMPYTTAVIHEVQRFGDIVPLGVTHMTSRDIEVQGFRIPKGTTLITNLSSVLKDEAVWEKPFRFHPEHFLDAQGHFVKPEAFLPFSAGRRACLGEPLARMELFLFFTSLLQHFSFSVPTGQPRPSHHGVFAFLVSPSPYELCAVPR
Description: CYP inhibition assay (Invitrogen P2862 kit). The class given is in vitro ADME. As to conditions: for inhibition at 1 h, 10 µM: human, CYP2D6 P450 BACULOSOMES (Invitrogen P2862 kit), probe Vivid CYP450 substrate, read-out: CYP inhibition (% at 10 μM) 2D6.
Source text: as §1
P450 BACULOSOMES® reagent and regeneration device (100×) provided by the Invitrogen kit were diluted in the Vivid® reaction buffer (2×) into the appropriate concentration for the type of CYP450. After mixing 80 μl of the 2.5× test material and 100 μl of the mixture of the diluted P450 BACULOSOMES® reagent in U-bottom 96-well plate, the resulting mixture was pre-incubated for 20 minutes. Vivid® CYP450 substrate and NADP+ (100×) were diluted in the Vivid® CYP450 reaction buffer (2×) into the appropriate concentration for the types of CYP450 and the substrates. After completion of the pre-incubation, 20/l of the substrate-NADP (nicotinamide adenine dinucleotide phosphate) mixture was added, and then incubated for 1 hour. After completion of the reaction, the reactants were transferred to the white plates, and fluorescence values were measured using a micro-plate reader (Excitation and absorption wavelengths of CYP2D6 were 400 nm and 502 nm, respectively).
as §3

Data set [6] has as its system male C57BL/6J (C57 black 6) rats in a high-fat diet model. Description: Oral glucose tolerance test (OGTT), high-fat diet model. As to conditions: 20 mg/kg oral, Table 3. The class given is in vivo. Here is the method: To evaluate in vivo effective effects of the cyclohexene derivatives according to the present invention, experiments were carried out, as follows.
Specifically, male C57BL/6J (C57 black 6) […] (8 to 10 weeks old) in a high-fat diet model were acclimated for at least 7 days, and only healthy rat populations were selected and subjected to an oral glucose tolerance test (OGTT). The rats were fasted for 12 to 15 hours, and then randomly divided into groups with five rats per group. Thereafter, each of the compounds of Examples 1, 14, 48, 69, 80, 118, 139, 147, 148, 169, 190, 199, 200, 204, 227, 277, 290, 291, 442, 443, and 461 to 466, and Comparative Examples 1 and 2 according to the present invention was administered to the rats at a dose of 20 mg/kg. In this case, a vehicle (0.5%, carboxymethyl cellulose (CMC)) was administered as an untreated group, and the dose of the compound administered together with the vehicle was orally administered at 10 ml/kg. After 30 minutes of administration, glucose (2 g/kg) was orally administered at a dose of 10 ml/kg. A blood glucose level was measured using an Accu-Chek Active Strip (Rosche Diagnostic Co.). In this case, the glucose level in blood collected via caudal venipuncture was measured at time points of −30, 0, 20, 40, 60, and 120 minutes after glucose administration. […]

Data set [7] deals with T6, G protein-coupled receptor 119 (GPR-119) (Mesocricetus auratus, UniProt A0A1U8CD06).
T6 construct: hamster-derived β-cells containing G protein-coupled receptor 119 (GPR-119), HIT-T15 cells; host or cells: HIT-T15 (hamster pancreatic β-cells)
T6 sequence (A0A1U8CD06 1-334): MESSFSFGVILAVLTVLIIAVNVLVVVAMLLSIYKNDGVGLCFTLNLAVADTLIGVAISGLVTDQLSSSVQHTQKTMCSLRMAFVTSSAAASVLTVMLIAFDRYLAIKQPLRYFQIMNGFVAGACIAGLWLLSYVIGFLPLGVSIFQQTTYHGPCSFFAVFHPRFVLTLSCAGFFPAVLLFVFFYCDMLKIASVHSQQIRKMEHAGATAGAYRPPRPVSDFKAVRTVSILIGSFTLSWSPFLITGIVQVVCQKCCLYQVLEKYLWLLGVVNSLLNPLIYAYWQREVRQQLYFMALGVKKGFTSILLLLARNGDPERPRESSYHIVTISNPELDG
Description: cAMP activity in HIT-T15 cells (cAMP dynamic kit, FRET). The data set is classed as cell-based, hamster. The method, boiled down: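 Hamster HIT-T15 cells (60,000/well) were treated next day with compound at six concentrations, 0.0032–10 μM, for 1 h at 37° C. Cells were then lysed and cAMP measured by competitive HTRF immunoassay (D2-cAMP, cryptate anti-cAMP). Activity was derived as the change in FRET signal relative to DMSO.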

Data set [8] deals with diet-induced obesity (DIO) rat model. Description: Changes in weights in diet-induced obesity (DIO) rat model, 4-week administration. The class given is in vivo, Sprague Dawley (SD) rats. To be noted: 5 mg/kg oral, 4 weeks. Here is the method: To simultaneously evaluate both the weight-loss and hypoglycemic effects of the cyclohexene derivative according to the present invention, experiments were carried out, as follows.
Specifically, male Sprague Dawley (SD) rats (approximately 4 weeks old) in a diet-induced obesity model were fed with a high-fat diet (Lab. Diet Co.) for approximately 10 weeks to induce high-fat diet-induced obesity (DIO). The rats undergoing the high-fat diet were randomly selected, and divided into groups (n=8) for respective administrations. The compounds of Comparative Examples 3 and 4 and Examples 48 and 119 were administered to the divided DIO rats each group for 4 weeks.
The weights of the DIO rats were measured twice a week during a period of administration of 4 weeks to record a change in the weights. At the end of the 4-week period of administration, a hypoglycemic effect was evaluated using an oral glucose tolerance test (OGTT), as follows.

The mark [9] stands for this setting: 1 hour at 37° C., six concentrations 0.0032 to 10 μM, read-out: EC50.

T2 sequence (P33261 whole entry): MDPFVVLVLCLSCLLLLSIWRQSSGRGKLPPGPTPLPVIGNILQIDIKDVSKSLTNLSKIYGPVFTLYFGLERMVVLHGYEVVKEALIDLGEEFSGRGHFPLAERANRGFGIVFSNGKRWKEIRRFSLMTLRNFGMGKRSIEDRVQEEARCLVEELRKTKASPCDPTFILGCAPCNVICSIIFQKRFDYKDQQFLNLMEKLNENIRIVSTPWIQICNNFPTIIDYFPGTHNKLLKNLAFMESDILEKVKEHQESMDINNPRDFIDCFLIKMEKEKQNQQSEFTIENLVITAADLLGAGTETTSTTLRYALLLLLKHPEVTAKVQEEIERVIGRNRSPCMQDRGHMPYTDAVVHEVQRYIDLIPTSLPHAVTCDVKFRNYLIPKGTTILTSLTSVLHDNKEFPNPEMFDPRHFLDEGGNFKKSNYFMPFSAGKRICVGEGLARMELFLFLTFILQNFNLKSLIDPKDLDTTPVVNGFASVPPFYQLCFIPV

Regarding `CCc1cnc(N2CCC(COc3ccc(C4=CCC(C(=O)N5CCC[C@@H]5CO)CC4)cc3)CC2)nc1` (stereo partly drawn) [Example 118, (4-(4-((1-(5-ethylpyrimidin-2-yl)piperidin-4-yl)methoxy)phenyl)cyclohex-3-enyl)((R)-2-(hydroxymethyl)pyrrolidin-1-yl)methanone], the inhibition at 15 min, 10 µM in data set [1] came out at 0%. Also, the inhibition at 30 min, 10 µM in data set [2] amounted to 48.4%; in data set [4], 48.2%. Besides, in data set [3], the inhibition at 1.5 h, 10 µM stood at 29.8%. Also, the inhibition at 1 h, 10 µM in data set [5] came to 9.42%.
For the molecule `CC(C)c1noc(C2CCN(c3ncnc(Nc4ccc(S(C)(=O)=O)cc4F)c3[N+](=O)[O-])CC2)n1` [Comparative Example 1, N-(2-fluoro-4-methylsulfonylphenyl)-5-nitro-6-[4-(3-propan-2-yl-1,2,4-oxadiazol-5-yl)piperidin-1-yl]pyrimidine-4-amine, reference compound], the inhibition at 15 min, 10 µM in data set [1] is 10.4%. Also, the inhibition at 1.5 h, 10 µM in data set [3] was found to be 24.1%. Further, the inhibition at 30 min, 10 µM in data set [4] is 47.8%. In data set [6], the hypoglycemic effect was determined as 13.5%. In data set [5], the inhibition at 1 h, 10 µM amounted to 9.84%.
As to `CCc1cnc(N2CCC(COc3ccc(C4=CCC(C(=O)N5CCC[C@@H]5CO)CC4)cc3)CC2)nc1` (single isomer, unassigned; (+)) [Example 290], in data set [1] (10 μM), the “CYP inhibition (% at 10 μM) 1A2” value amounted to 3.82%. Also, the inhibition at 30 min, 10 µM stood at 44.9% in data set [2] and 33.1% in data set [4]. In addition, the “CYP inhibition (% at 10 μM) 2C9” value in data set [3] (10 μM) was 23.97%. In addition, in data set [5] (10 µM), the “CYP inhibition (% at 10 μM) 2D6” value is given as 48.97%. The half-maximal effective concentration (EC50) was 3.8 nM in data set [7] (setting [9]) and not above 50 nM in data set [7] (Table 2, read-out: EC50 value).
For `CC(C)c1noc(N2CCC(COc3ccc(-c4ccc(S(C)(=O)=O)cc4)nc3)CC2)n1` [Comparative Example 2, 2-(4-methanesulfonylphenyl)-5-({1-[3-(propan-2-yl)-1,2,4-oxadiazol-5-yl]piperidin-4-yl}methoxy)pyridine], in data set [6], the hypoglycemic effect was found to be 15.3%.
In the case of `CC(C)CC(N(C)C)C1(c2ccc(Cl)cc2)CCC1` (stereo not shown) [Comparative Example 4, Sibutramine], the “changes in weights of rats (weight-loss effect)” value in data set [8] is on record as “weight loss was observed for 2 weeks; also recorded: the weight rather increased after 2 weeks”.
As for `CCc1cnc(N2CCC(COc3ccc(C4=CCC(C(=O)N5CCC(C#N)CC5)CC4)c(F)c3)CC2)nc1` (stereo not shown) [Example 424, 1-(4-(4-((1-(5-ethylpyrimidin-2-yl)piperidin-4-yl)methoxy)-2-fluorophenyl)cyclohex-3-enecarbonyl)piperidine-4-carbonitrile], the half-maximal effective concentration (EC50) was 21 nM in data set [7] (setting [9]) and not above 50 nM in data set [7] (Table 2, read-out: EC50 value).
For `CCc1cnc(N2CCC(COc3ccc(C4=CCC(C(=O)N5CCN(C6CC6)CC5)CC4)cc3)CC2)nc1` (stereo not shown) [Example 395, (4-cyclopropylpiperazin-1-yl)(4-(4-((1-(5-ethylpyrimidin-2-yl)piperidin-4-yl)methoxy)phenyl)cyclohex-3-enyl)methanone], in data set [7] (setting [9]), the EC50 was 14 nM.

By inhibition is commonly meant how much of the control response was suppressed. One may read the EC50 as the concentration needed to bring the measured effect to its halfway point.
